Values quoted from earlier work, collected in patent US8445706B2, “Unnatural amino acids capable of covalently modifying protein phosphatases and their use as general and specific inhibitors and probes” (Board of Trustees of Northern Illinois University, priority 2008, dated 2013).

Settings: neutral or basic aqueous solutions; cited from earlier work

## O=P(O)(O)C(Br)c1ccccc1 (stereo not drawn) [α-bromobenzylphosphonate]
  solvolysis: undergoes solvolysis
